# Measurements: patent publication US20240226056A1, “Sleep or Post-Sleep Performance” (Vanda Pharmaceuticals Inc., priority 2018, published 2024)
# Entries after “also recorded” stand apart in the source; their conditions may differ.
# What was measured:
# [1] = from prescribing information; cited from earlier work
# [2] = Tasimelteon jet lag disorder (JLD) clinical program; type: in vivo, human; settings: individuals experiencing circadian advances of five to eight hours
# [3] = 10 mg, 20 mg, 50 mg and 100 mg daily doses; 5-hour advance in sleep-wake cycle; cited from earlier work
# [4] = preclinical models of acute phase-shifting and chronic re-entrainment; cited from earlier work
# [5] = Next-day driving performance on the CRCDS automobile driving simulator after a bedtime dose; type: in vivo, human; settings: bedtime dose tasimelteon 20 mg or zopiclone 7.5 mg
# Method: In this study, 48 healthy volunteers operate an automobile driving simulator the moming after being administered a bedtime dose of tasimelteon 20 mg, zopiclone 7.5 mg, or placebo. Volunteers are instructed to operate the driving simulator for about one hour with a speed of 55 mph while maintaining lane position.
# Driving performance is assessed by a number of validated measures, including standard deviation from lateral position (SDLP), a measure of lane weaving.
# An SDLP of 4.4 cm as compared to control is considered equivalent to the driving impairment associated with a blood alcohol content (BAC) of 0.05%, the threshold for drunk driving in many countries.
structure (smiles),measurement,setting,value
Cc1ccc(-n2nccn2)c(C(=O)N2CCN(c3nc4cc(Cl)ccc4o3)CC[C@H]2C)c1 [BELSOMRA],driving performance in clinical studies (in words),[1],clinically meaningful impaired driving performance in some subjects
CCC(=O)NC[C@@H]1C[C@H]1c1cccc2c1CCO2 [tasimelteon],benefit in jet lag disorder (in words),[2],significant benefits
same,shifting dim light melatonin onset and sleep efficacy relative to placebo (in words),[3],positive outcomes
same,chronobiotic activity (in words),[4],potent chronobiotic activity
CN1CCN(C(=O)OC2c3nccnc3C(=O)N2c2ccc(Cl)cn2)CC1 (stereo not drawn) [zopiclone],SDLP Difference (least squares means) vs Placebo,"[5]; 48 healthy volunteers, driving simulator 9 hours post-dose, about one hour at 55 mph",4.14 cm
same,next-day driving impairment compared to placebo (in words),[5]; evaluated nine hours after dosing,does significantly impair driving ability; also recorded: meaningful and significant effect on lane weaving
